Data on 16 molecules can be found in US20170150719A1, “FUNGICIDAL PYRAZOLES AND THEIR MIXTURES” (E I DU PONT DE NEMOURS AND COMPANY, priority 2010, published 2017).

One experiment concerns Alternaria solani. Description: Test B: tomato early blight, preventive spray on tomato seedlings, visual disease rating. To be noted: for pest or weed control at 200 µg/mL: Alternaria solani, in Solanum lycopersicum, read-out: Test B rating (disease control); for Test B rating (disease control) / Test B rating (% disease control): tomato early blight, 100 = 100% disease control; for Test B rating (disease control): 0 = no disease control relative to the controls; for Test B rating (% disease control): preventive spray, rating without asterisk.

For a further experiment, the system named is Botrytis cinerea. Description: Test A: tomato Botrytis, preventive spray on tomato seedlings, visual disease rating. To be noted: 100 = 100% disease control; for pest or weed control at 200 µg/mL: Botrytis cinerea, in Solanum lycopersicum, read-out: Test A rating (disease control), tomato Botrytis; for pest or weed control at 200 µg/mL / Test A rating (disease control): 0 = no disease control relative to the controls; for Test A rating (disease control) / Test A rating (% disease control): tomato Botrytis; for Test A rating (% disease control): preventive spray, 0 = no control relative to controls, rating without asterisk.

Experiment [1] relates to Puccinia recondita f. sp. tritici. Description: Test H: wheat leaf rust, preventive spray on wheat seedlings, visual disease rating. Particulars: 100 = 100% disease control; for pest or weed control at 200 µg/mL: read-out: Test H rating (disease control), wheat leaf rust, sprayed the day before inoculation; for pest or weed control at 200 µg/mL / Test H rating (disease control): 0 = no disease control; for Test H rating (disease control) / Test H rating (% disease control): wheat leaf rust; for Test H rating (disease control): sprayed the day before inoculation; for Test H rating (% disease control): preventive spray, rating without asterisk.

Experiment [2] has the same test system. The experiment in a line: Test G: wheat leaf rust, spray after inoculation (curative) on wheat seedlings, visual disease rating. The class given is in vivo. Particulars: 100 = 100% disease control; for pest or weed control at 200 µg/mL / Test G rating (disease control): sprayed after inoculation, 0 = no disease control; for Test G rating (% disease control): spray after inoculation, rating without asterisk. An excerpt:
(§1) A hyphen (-) indicates no test results.

In the next experiment the test system is Septoria tritici. The experiment in a line: Test F: wheat leaf blotch, preventive spray on wheat seedlings, visual disease rating. To be noted: 100 = 100% disease control; for pest or weed control at 200 µg/mL: Zymoseptoria tritici; for pest or weed control at 200 µg/mL / Test F rating (disease control): 0 = no disease control relative to the controls; for Test F rating (% disease control): preventive spray, rating without asterisk. The class given is in vivo.
Description: as §1

The subject of experiment [3] is Blumeria graminis f. sp. tritici. The experiment in a line: Test I: wheat powdery mildew, preventive spray on wheat seedlings, visual disease rating. Particulars: 100 = 100% disease control; for pest or weed control at 200 µg/mL: Blumeria graminis, in Triticum aestivum, read-out: Test I rating (disease control), wheat powdery mildew; for pest or weed control at 200 µg/mL / Test I rating (disease control): 0 = no disease control relative to the controls; for Test I rating (disease control) / Test I rating (% disease control): wheat powdery mildew; for Test I rating (% disease control): preventive spray, rating without asterisk.

Another experiment deals with Septoria nodorum. Description: Test E: Septoria glume blotch, preventive spray on wheat seedlings, visual disease rating. Particulars: 100 = 100% disease control; for pest or weed control at 200 µg/mL: Parastagonospora nodorum, in Triticum aestivum, read-out: Test E rating (disease control), Septoria glume blotch; for pest or weed control at 200 µg/mL / Test E rating (disease control): 0 = no disease control relative to the controls; for Test E rating (disease control): Septoria glume blotch; for Test E rating (% disease control): Septoria glume blotch on wheat, preventive spray, rating without asterisk.

`Cc1nn(C)c(C(O)c2ccc(F)cc2F)c1-c1ccc(F)cc1Cl` (stereo not drawn) [Compound 122, 4-(2-chloro-4-fluorophenyl)-α-(2,4-difluorophenyl)-1,3-dimethyl-1H-pyrazole-5-methanol]: the pest or weed control at 200 µg/mL with Alternaria solani turned out to be 99%; in the experiment with Botrytis cinerea, 100%; in experiment [1], 100%; in experiment [2] it was 96%; in the experiment with Septoria tritici it was 100%; in experiment [3], 99%. Further, the pest or weed control at 200 µg/mL in the experiment on Septoria nodorum turned out to be 92%.

Turning to `Cc1nn(C)c(Nc2c(F)cc(Cl)cc2F)c1-c1ccc(F)cc1F` [Compound 126, N-(4-chloro-2,6-difluorophenyl)-4-(2,4-difluorophenyl)-1,3-dimethyl-1H-pyrazol-5-amine], the pest or weed control at 200 µg/mL was determined as 86% in the experiment with Alternaria solani; 100% in the experiment with Botrytis cinerea; 99% in experiment [1]; 0% in experiment [2]; 100% in the experiment with Septoria tritici; 100% in experiment [3]. In the experiment on Septoria nodorum, the pest or weed control at 200 µg/mL came to 87%.

Consider `Cc1nn(C)c(Nc2ccc(F)cc2I)c1-c1ccc(F)cc1F` [compound 175], for which the “Test B rating (disease control)” value with Alternaria solani is on record as 97%. In the experiment on Botrytis cinerea, the “Test A rating (disease control)” value is recorded as 100%. The “Test H rating (disease control)” value in experiment [1] turned out to be 100%. Besides, the “Test G rating (disease control)” value in experiment [2] was found to be 41%. For the same molecule, in the experiment on Septoria tritici, the “Test F rating (disease control)” value stood at 100%. In experiment [3], the “Test I rating (disease control)” value was found to be 100%. Also, in the experiment with Septoria nodorum, the “Test E rating (disease control)” value came out at 73%.

`Cc1nn(C)c(Nc2c(F)cc(I)cc2F)c1-c1ccc(F)cc1Br` [compound 218]: in the experiment on Alternaria solani, the “Test B rating (% disease control)” value was 68%. Besides, the “Test A rating (% disease control)” value in the experiment on Botrytis cinerea is listed as 100%. Further, the “Test H rating (% disease control)” value in experiment [1] was found to be 99%. Also, the “Test G rating (% disease control)” value in experiment [2] is given as 0%. In the experiment on Septoria tritici, the “Test F rating (% disease control)” value is recorded as 100%. Moreover, in experiment [3], the “Test I rating (% disease control)” value was determined as 99%. The “Test E rating (% disease control)” value in the experiment on Septoria nodorum is listed as 86%.

`Cc1nn(C)c(Nc2c(F)cc(F)cc2F)c1-c1ccc(Cl)cc1Cl` [compound 18]: the “Test B rating (disease control)” value in the experiment with Alternaria solani is recorded as 98%. For the same molecule, the “Test A rating (disease control)” value in the experiment with Botrytis cinerea worked out at 100%. The “Test H rating (disease control)” value in experiment [1] is given as 99%. In addition, in experiment [2], the “Test G rating (disease control)” value is given as 95%. In the experiment on Septoria tritici, the “Test F rating (disease control)” value is reported as 99%. Moreover, in experiment [3], the “Test I rating (disease control)” value is on record as 97%. Further, the “Test E rating (disease control)” value in the experiment with Septoria nodorum was determined as 98%.

Turning to `CCOc1ccc(-c2c(C)nn(C)c2Nc2c(Cl)cc(F)cc2Cl)c(Cl)c1` [compound 208], the “Test B rating (% disease control)” value in the experiment on Alternaria solani came out at 0%. For the same molecule, in the experiment on Botrytis cinerea, the “Test A rating (% disease control)” value was determined as 18%. Moreover, the “Test H rating (% disease control)” value in experiment [1] stood at 85%. For the same molecule, the “Test G rating (% disease control)” value in experiment [2] was found to be 0%. For the same molecule, the “Test F rating (% disease control)” value with Septoria tritici was 99%. The “Test I rating (% disease control)” value in experiment [3] stood at 27%. Moreover, the “Test E rating (% disease control)” value in the experiment on Septoria nodorum came out at 0%.

Turning to `COc1cc(F)c(-c2c(C)nn(C)c2Nc2ccc(F)cc2Cl)c(F)c1` [Compound 23, N-(2-chloro-4-fluorophenyl)-4-(2,6-difluoro-4-methoxyphenyl)-1,3-dimethyl-1H-pyrazol-5-amine], the pest or weed control at 200 µg/mL is 100% with Alternaria solani; 100% in the experiment on Botrytis cinerea; 99% in experiment [1]; 85% in experiment [2]; 98% in the experiment on Septoria tritici; 100% in experiment [3]. For the same molecule, the pest or weed control at 200 µg/mL in the experiment on Septoria nodorum was found to be 95%.

For the molecule `COc1ccc(-c2c(C)nn(C)c2Nc2c(F)cc(F)cc2F)c(Cl)c1` [compound 29], the “Test B rating (disease control)” value with Alternaria solani stood at 99%. Also, the “Test A rating (disease control)” value with Botrytis cinerea turned out to be 100%. Further, in experiment [1], the “Test H rating (disease control)” value is reported as 99%. Besides, the “Test G rating (disease control)” value in experiment [2] is given as 99%. Moreover, in the experiment with Septoria tritici, the “Test F rating (disease control)” value stood at 99%. In addition, the “Test I rating (disease control)” value in experiment [3] came out at 100%. Further, the “Test E rating (disease control)” value with Septoria nodorum is recorded as 97%.

`Cc1nn(C)c(Oc2ccc(C#N)cc2Cl)c1-c1c(F)cccc1F` [Compound 127, 3-chloro-4-[[4-(2,6-difluorophenyl)-1,3-dimethyl-1H-pyrazol-5-yl]oxy]benzonitrile]: the pest or weed control at 200 µg/mL with Alternaria solani was determined as 0%; in the experiment on Botrytis cinerea it was 99%; in experiment [1], 97%; in experiment [2], 0%; with Septoria tritici, 100%; in experiment [3], 97%. The pest or weed control at 200 µg/mL in the experiment with Septoria nodorum came to 0%.

`Cc1nn(C)c(Oc2ccc(C#N)cc2F)c1-c1ccc(Cl)cc1F` [compound 119]: in the experiment on Alternaria solani, the “Test B rating (disease control)” value was 94%. In addition, in the experiment with Botrytis cinerea, the “Test A rating (disease control)” value is on record as 99%. In experiment [1], the “Test H rating (disease control)” value worked out at 91%. Besides, the “Test G rating (disease control)” value in experiment [2] is 0%. Moreover, the “Test F rating (disease control)” value in the experiment with Septoria tritici was determined as 100%. Also, the “Test I rating (disease control)” value in experiment [3] stood at 99%. Besides, in the experiment with Septoria nodorum, the “Test E rating (disease control)” value is reported as 94%.

Turning to `Cc1nn(C)c(Nc2c(F)cc(C#N)cc2F)c1-c1c(F)cc(F)cc1F` [compound 26], the “Test B rating (disease control)” value in the experiment with Alternaria solani was 100%. The “Test A rating (disease control)” value in the experiment with Botrytis cinerea was found to be 100%. Moreover, in experiment [1], the “Test H rating (disease control)” value worked out at 99%. The “Test G rating (disease control)” value in experiment [2] came out at 41%. The “Test F rating (disease control)” value in the experiment with Septoria tritici is 100%. For the same molecule, in experiment [3], the “Test I rating (disease control)” value is listed as 100%. Further, the “Test E rating (disease control)” value in the experiment on Septoria nodorum turned out to be 99%.

With `Cc1nn(C)c(Nc2c(F)cc(F)cc2Cl)c1-c1ccc(F)cc1Br` [Compound 84, 4-(2-bromo-4-fluorophenyl)-N-(2-chloro-4,6-difluorophenyl)-1,3-dimethyl-1H-pyrazol-5-amine], the pest or weed control at 200 µg/mL in the experiment on Alternaria solani stood at 99%; in the experiment on Botrytis cinerea, 100%; in experiment [1] it was 100%; in experiment [2], 92%; in the experiment on Septoria tritici, 100%; in experiment [3], 100%. Further, in the experiment on Septoria nodorum, the pest or weed control at 200 µg/mL turned out to be 96%.

In the case of `COc1ccc(-c2c(C)nn(C)c2Nc2c(F)cc(Cl)cc2Cl)c(Cl)c1` [compound 201], the “Test B rating (% disease control)” value in the experiment with Alternaria solani came to 100%. For the same molecule, in the experiment on Botrytis cinerea, the “Test A rating (% disease control)” value was determined as 100%. Besides, in experiment [1], the “Test H rating (% disease control)” value was 100%. In addition, the “Test G rating (% disease control)” value in experiment [2] came out at 98%. The “Test F rating (% disease control)” value with Septoria tritici was determined as 100%. The “Test I rating (% disease control)” value in experiment [3] was 97%. In the experiment with Septoria nodorum, the “Test E rating (% disease control)” value worked out at 99%.

Consider `COc1cc(F)c(-c2c(C)nn(C)c2Nc2ccc(F)cc2F)c(F)c1` [Compound 6, 4-(2,6-difluoro-4-methoxyphenyl)-N-(2,4-difluorophenyl)-1,3-dimethyl-1H-pyrazol-5-amine], for which the pest or weed control at 200 µg/mL amounted to 100% in the experiment with Alternaria solani; 98% in the experiment with Botrytis cinerea; 100% in experiment [1]; 92% in experiment [2]; 93% in the experiment with Septoria tritici; 100% in experiment [3]. In addition, in the experiment with Septoria nodorum, the pest or weed control at 200 µg/mL was determined as 99%.

Take `Cc1nn(C)c(Nc2ccc(F)cc2Cl)c1-c1c(F)cc(C#N)cc1F` [compound 31]: the “Test B rating (disease control)” value in the experiment on Alternaria solani was 98%. In the experiment on Botrytis cinerea, the “Test A rating (disease control)” value came to 100%. Also, the “Test H rating (disease control)” value in experiment [1] was 100%. For the same molecule, the “Test G rating (disease control)” value in experiment [2] is on record as 53%. In the experiment on Septoria tritici, the “Test F rating (disease control)” value turned out to be 99%. In addition, the “Test I rating (disease control)” value in experiment [3] was 100%. Also, the “Test E rating (disease control)” value in the experiment with Septoria nodorum worked out at 99%.

Consider `Cc1nn(C)c(Nc2c(F)cc(F)cc2Br)c1-c1ccc(F)cc1Cl` [Compound 144, N-(2-bromo-4,6-difluorophenyl)-4-(2-chloro-4-fluorophenyl)-1,3-dimethyl-1H-pyrazol-5-amine], for which the pest or weed control at 200 µg/mL amounted to 99% with Alternaria solani; 100% in the experiment on Botrytis cinerea; 100% in experiment [1]; 100% in experiment [2]; 100% in the experiment with Septoria tritici; 100% in experiment [3]. The pest or weed control at 200 µg/mL with Septoria nodorum worked out at 100%.
